Data taken from PMC2929814 (Journal of medicinal chemistry, 2010).
Read-outs that look alike come from different tables or passages of the source.

Experiments:
[1] = system: P. falciparum D6 (CQS) strain; details: read-out: IC50 against the D6 strain; reported value; cited from earlier work
[2] = system: mouse spleen lymphocytes; experiment: Cytotoxicity against mouse spleen lymphocytes; details: estimated ±50%
[3] = system: parasitemia; details: mouse model, oral dosing; cited from earlier work
[4] = system: P. falciparum D6 (CQS) strain; experiment: Activity against CQ-sensitive P. falciparum D6 in red cell culture; type: cell-based, Plasmodium falciparum

| Structure (SMILES) | Cytotoxicity [2] [µM] | further results |
| --- | --- | --- |
| Clc1ccc2c(N3CCN(CCCN4CCN(c5ccnc6cc(Cl)ccc56)CC4)CC3)ccnc2c1 [piperaquine, 1,3-bis-[4-(7-chloroquinolyl-4)-piperazinyl-1]-propane] |  | IC50 [1]: < 10 nM |
| Clc1ccc2c(NCCN(CCN(Cc3ccccc3)Cc3ccccc3)CCN(Cc3ccccc3)Cc3ccccc3)ccnc2c1 [Compound 7] | 6.2 |  |
| CN(CCCNc1ccnc2cc(Cl)ccc12)CCCN1c2ccccc2CCc2ccccc21 [Compound 1] | 0.7 | parasitemia cleared to [3]: < 1% |
| O=C(CNCCNc1ccnc2cc(Cl)ccc12)N(c1ccccc1)c1ccccc1 [Compound 10] | 62 | therapeutic index (cytotoxicity/efficacy) for D6 ([4]; cytotoxicity / IC50 D6): 12,000 |
| CCN(CC)CCCC(C)Nc1ccnc2cc(Cl)ccc12 (stereo not shown) [CQ, chloroquine, reference compound] | 12 | IC50 ([4]; Plasmodium falciparum, D6, read-out: IC50 D6 (CQS)): 7 nM |
| Clc1ccc2c(NCCCNCCCCN(Cc3ccccc3)Cc3ccccc3)ccnc2c1 [Compound 5] | 1.3 |  |
| Clc1ccc2c(N3CCN(CCN(Cc4ccccc4)Cc4ccccc4)CC3)ccnc2c1 [Compound 11] | 61 |  |
